The structures appear in SMILES notation.

The test system of data set [1] is DLD-1 (colorectal adenocarcinoma). The data set can be described thus: Cytotoxicity/Growth Inhibition Assay (CellTiter-Glo), DLD-1. As to conditions: Homo sapiens, DLD-1, 96 h; hydrochloride salts; 4 days culture. Type of data set: cell-based. As to the method: (§1) The human cancer cell lines DLD-1 (colorectal adenocarcinoma), LNCaP (prostate carcinoma), and MIA PaCa-2 (pancreatic carcinoma) were obtained from the American Type Culture Collection, Manassas, Va., U.S.A., and MX-1 (breast carcinoma) from the National Cancer Institute, Bethesda, Md., U.S.A. The CellTiter-Glo assay kit was obtained from Promega Corporation, Madison, Wis., U.S.A. All products were used in accordance with manufacturer's directions. All assays were conducted in triplicate wells, with dimethyl sulfoxide (DMSO) solvent control. The extent of cell growth was expressed as a percentage of the signal from the solvent control wells.
(§2) Log-phase cells were trypsinized, collected by centrifugation, and resuspended in a small volume of fresh medium, and the density of viable cells was determined following Trypan Blue staining. Cells were diluted in fresh media (3×10^3 cells/mL for DLD-1, MIA PaCa-2, and MX-1, and 6×10^3 cells/mL for LNCaP), and added at 150 μL/well to 96-well plates, and incubated for several hours to allow attachment in the case of adherent cells. Compounds 1A to 5A, as their hydrochloride salts, dissolved in DMSO, was diluted 50-fold with fresh medium and the diluted solutions immediately added at 50 μL/well to the cell suspensions, giving final compound concentrations between 0.1 μM and 200 μM and a final DMSO concentration of 0.5%. The cells were cultured for approximately three doubling times (3 days for MIA PaCa-2 and MX-1, and 4 days for DLD-1 and LNCaP). The cells were then collected by centrifugation, and 100 μL of the culture supernatant was replaced by the CellTiter-Glo reagent. After incubation for 10 minutes at room temperature, and the plate was read with a luminometer. A number of compounds of formula A were tested in this assay and found to be active.

Data set [2] concerns LNCaP (prostate carcinoma). Briefly: Cytotoxicity/Growth Inhibition Assay (CellTiter-Glo), LNCaP. The settings on record: Homo sapiens, 96 h, hydrochloride salts, 4 days culture. In kind it is cell-based. As to the method:
as §1, §2

In data set [3] the test system is MIA PaCa-2 (pancreatic carcinoma). Briefly: Cytotoxicity/Growth Inhibition Assay (CellTiter-Glo), MIA PaCa-2. In kind it is cell-based. As to conditions: Homo sapiens, MIA PaCa-2, 72 h; hydrochloride salts; 3 days culture. The method, then:
as §1, §2

Data set [4] has as its system MX-1 (breast carcinoma). Briefly: Cytotoxicity/Growth Inhibition Assay (CellTiter-Glo), MX-1. Type of data set: cell-based. The settings on record: Homo sapiens, 72 h; hydrochloride salts; 3 days culture. As to the method:
as §1, §2

Data set [5] has as its system MX-1 tumor. The data set can be described thus: MX-1 Xenograft Assay, Intraperitoneal Administration. As to conditions: hydrochloride salts in aqueous 5% dextrose. Type of data set: in vivo, athymic nu/nu mice. As to the method:
(§3) Female athymic nu/nu mice (Harlan, Indianapolis, Ind., U.S.A. or similar vendor), 6-8 weeks old (approximately 20 g), were implanted in the mammary fat pad of the right fore flank with 20-30 mg pieces of MX-1 tumor harvested from similar nu/nu mice that had previously been implanted with the MX-1 tumor. […] Groups of mice were treated with compounds 2A and 3A at 50 mg/Kg and compounds 1A, 2A, 3A, and 5A at 100 mg/Kg, in all cases as the hydrochloride salts dissolved in aqueous 5% dextrose, by intraperitoneal injection once/day for 5 consecutive days, with vehicle control. Tumor mass, estimated from volume, was measured twice weekly; and tumor growth inhibition was measured when the average tumor mass in the control group first exceeded 2000 mg. All compounds were active in this assay, with tumor growth inhibition compared to vehicle of 70% and 23% for compounds 2A and 3A, respectively, at 50 mg/Kg, and 100%, 100%, 100%, and 91% for compounds 1A, 2A, 3A, and 5A, respectively, at 100 mg/Kg.

Data set [6] can be described thus: Solubility in water of salts. As to conditions: for solubility: water, solubility in water.
In data set [7] the test system is MIA PaCa-2 tumor. The data set can be described thus: MiaPaCa-2 Xenograft Assay, Intraperitoneal Administration. In kind it is in vivo, athymic nu/nu mice. The settings on record: 100 mg/Kg intraperitoneal once/day for 7 days; for tumor growth inhibition compared to vehicle: hydrochloride salts in aqueous 5% dextrose. As to the method:
Male athymic nu/nu mice, 6-8 weeks old (approximately 20 g), were implanted subcutaneously in the right fore flank with 20-30 mg pieces of MIA PaCa-2 tumor harvested from similar nu/nu mice that had previously been implanted with the MIA PaCa-2 tumor. […] A group of mice was treated with compounds 2A, 3A, and 5A, in all cases as the hydrochloride salts dissolved in aqueous 5% dextrose, at 100 mg/Kg by intraperitoneal injection once/day for 7 consecutive days, with vehicle control.

Data set [8] has as its system MX-1 tumor. The data set can be described thus: MX-1 Xenograft Assay, Oral Administration. In kind it is in vivo, athymic nu/nu mice. As to conditions: hydrochloride salt in water. As to the method:
as §3
A study similar to that described in In vivo Example 1 was performed using oral administration of compounds 2A and 3A. Groups of mice were treated with compound 2A at 100, 150, 200, or 300 mg/Kg, or compound 3A at 150 mg/Kg, in each case as the hydrochloride salts dissolved in water, by gavage once/day for 5 consecutive days, with vehicle control. Both compounds were active in this assay and compound 2A caused dose-dependent tumor inhibition.

In data set [9] the test system is MX-1 tumor. Briefly: MX-1 Xenograft Assay, Intravenous Administration. As to conditions: hydrochloride salt in aqueous 5% dextrose. Type of data set: in vivo, athymic nu/nu mice. The method, then:
as §3
A study similar to that described in In vivo Example 1 was performed using intravenous administration of compound 2A. A group of mice was treated with the compound, as the hydrochloride salt dissolved in aqueous 5% dextrose, at 40 and 80 mg/Kg by tail vein injection once/day for 5 consecutive days, with vehicle control.

For data set [10], the system named is human cancer cell lines DLD-1, LNCaP, MIA PaCa-2, MX-1. Briefly: Cytotoxicity/Growth Inhibition Assay, all cell lines, comparison with canfosfamide. In kind it is cell-based. As to conditions: all assays (DLD-1, LNCaP, MIA PaCa-2, MX-1). As to the method: as §1
Log-phase cells were trypsinized, collected by centrifugation, and resuspended in a small volume of fresh medium, and the density of viable cells was determined following Trypan Blue staining. Cells were diluted in fresh media (3×10^3 cells/mL for DLD-1, MIA PaCa-2, and MX-1, and 6×10^3 cells/mL for LNCaP), and added at 150 μL/well to 96-well plates, and incubated for several hours to allow attachment in the case of adherent cells. […] After incubation for 10 minutes at room temperature, and the plate was read with a luminometer. […]

Setting [11] is: 100 mg/Kg intraperitoneal once/day for 5 days.
Setting [12] is: 50 mg/Kg intraperitoneal once/day for 5 days.

Turning to `CN(C)CCS(=O)(=O)CCOP(=O)(N(CCCl)CCCl)N(CCCl)CCCl` [Compound 1A, 2-{[2-(dimethylamino)ethyl]sulfonyl}ethyl N,N,N′,N′-tetrakis(2-chloroethyl)phosphorodiamidate], the IC50 in data set [1] came to 11 µM; in data set [2], 130 µM; in [3], 39 µM; in data set [4] it was 43 µM. The “tumor growth inhibition compared to vehicle” value in [5] (setting [11]) amounted to 100%. Besides, the results for the “solubility in water (in words)” value in data set [6] (citrate salt) and in data set [6] (hydrochloride salt) were “somewhat more soluble than the citrate salt of compound 2A” and “highly soluble in water”, respectively.

On to `O=P(OCCS(=O)(=O)CCN1CCCCC1)(N(CCCl)CCCl)N(CCCl)CCCl` [Compound 5A, 2-{[2-(piperidin-1-yl)ethyl]sulfonyl}ethyl N,N,N′,N′-tetrakis(2-chloroethyl)phosphorodiamidate], for which the IC50 in data set [1] was 13 µM; in data set [2], 140 µM; in [3], 36 µM; in [4], 41 µM. Besides, the “tumor growth inhibition compared to vehicle” value in [5] (setting [11]) came out at 91%; in [7] it was 62%. For the same compound, the body weight effect result in [7] is reported as “some body weight loss”.

With `CCN(CC)CCS(=O)(=O)CCOP(=O)(N(CCCl)CCCl)N(CCCl)CCCl` [Compound 2A, 2-{[2-(diethylamino)ethyl]sulfonyl}ethyl N,N,N′,N′-tetrakis(2-chloroethyl)phosphorodiamidate], the IC50 in data set [1] turned out to be 7.9 µM; in data set [2], 75 µM; in [3], 16 µM; in data set [4], 16 µM. Besides, the “tumor growth inhibition compared to vehicle” value is 70% in [5] (setting [12]), 100% in [5] (setting [11]) and 89% in data set [7]. Further, the “inhibition of tumor growth compared to vehicle” value in data set [8] (100 mg/Kg by gavage once/day for 5 days) came out at 92%; in [8] (300 mg/Kg by gavage once/day for 5 days) it was 100%; in data set [9] (40 mg/Kg tail vein injection once/day for 5 days) it was 53%; in [9] (80 mg/Kg tail vein injection once/day for 5 days), 99%. For the same compound, the body weight effect entry in data set [7] was “some body weight loss”. Further, in data set [10], the “potency relative to canfosfamide” value is listed as “more potent”. The “solubility in water (in words)” value in data set [6] (tartrate salt) is “slightly more soluble than the citrate salt”. Further, the solubility in data set [6] (citrate salt) is around 19 mg/mL; in data set [6] (hydrochloride salt) it was at least 50 mg/mL.

`CC(C)N(CCS(=O)(=O)CCOP(=O)(N(CCCl)CCCl)N(CCCl)CCCl)C(C)C` [Compound 3A, 2-{[2-(diisopropylamino)ethyl]sulfonyl}ethyl N,N,N′,N′-tetrakis(2-chloroethyl)phosphorodiamidate]: the IC50 in data set [1] stood at 5 µM; in data set [2], 16 µM; in data set [3], 6.8 µM; in data set [4] it was 5 µM. Besides, the results for the “tumor growth inhibition compared to vehicle” value in data set [5] (setting [12]), in [5] (setting [11]) and in data set [7] were 23%, 100% and 89%, respectively. In addition, in [8] (150 mg/Kg by gavage once/day for 5 days), the “inhibition of tumor growth compared to vehicle” value was found to be 98%. Moreover, the body weight effect entry in data set [7] is “some body weight loss”. For the same compound, the “potency relative to canfosfamide” value in [10] is listed as “more potent”.

As for `O=P(OCCS(=O)(=O)CCN1CCCC1)(N(CCCl)CCCl)N(CCCl)CCCl` [Compound 4A, 2-{[2-(pyrrolidin-1-yl)ethyl]sulfonyl}ethyl N,N,N′,N′-tetrakis(2-chloroethyl)phosphorodiamidate], the half-maximal inhibitory concentration (IC50) in data set [1] came to 8.6 µM; in [2], 100 µM; in [3] it was 29 µM; in data set [4] it was 26 µM.
